Common to all, as to format: in vivo
Holding throughout (details): Table 30; mouse liver 24 h; oligonucleotide 5 mg/kg (or PBS); Treatment AZD8055 5 mg/kg at 0, 12, 22 h

For one assay, the system named is LC3B. As to the kind of experiment: Liver protein analysis in mice: LC3B II/I ratio. The procedure:
(§1) The following experiments were performed to determine if the effects of autophagy modulators on antisense activity in vitro can be observed in vivo. Groups of 3-4 8-week-old male C57bl/6J mice were administered 5 mg/kg control oligonucleotide 141923, or 5 mg/kg antisense oligonucleotide 399462. Following administration of modified oligonucleotide, mice were administered 1% DMSO or 5 mg/kg AZD8055 in 1% DMSO at three time points over 24 hours: at the time of administration of the modified oligonucleotide, and 12 and 22 hours after administration of the modified oligonucleotide. A group of control mice was administered PBS at time 0 and 1% DMSO at 0, 12, and 22 hours. Mice were sacrificed at 24 hours after administration of the modified oligonucleotide and tissues were collected for analysis.
(§2) Autophagy activation was confirmed in livers by determining suppression of mTOR kinase activity (pS6/S6 levels), determining an increased LC3B II/I ratio (a marker for the formation of autophagosomes), and determining p62 degradation (related to the clearance of autophagosomes). Protein analysis was carried out on liver tissue using standard procedures. All proteins were normalized to α-tubulin. Phospho-S6 Ribosomal Protein (Ser240/244) (2215S), and S6 Ribosomal Protein (2217S) antibodies were obtained from Cell Signaling Technology. The antibody against LC3B (ab48394) was purchased from Abcam. […]

Another assay deals with p62. As to the kind of experiment: Liver protein analysis in mice: p62. The procedure:
as §1, §2

In assay [1] the test system is mTOR kinase activity (pS6/S6 levels). As to the kind of experiment: Liver protein analysis in mice: pS6/S6.
Method: The following experiments were performed to determine if the effects of autophagy modulators on antisense activity in vitro can be observed in vivo. […] Following administration of modified oligonucleotide, mice were administered 1% DMSO or 5 mg/kg AZD8055 in 1% DMSO at three time points over 24 hours: at the time of administration of the modified oligonucleotide, and 12 and 22 hours after administration of the modified oligonucleotide. A group of control mice was administered PBS at time 0 and 1% DMSO at 0, 12, and 22 hours. Mice were sacrificed at 24 hours after administration of the modified oligonucleotide and tissues were collected for analysis.
Protein analysis was carried out on liver tissue using standard procedures. All proteins were normalized to α-tubulin. […] The antibody against LC3B (ab48394) was purchased from Abcam. […] Antibody against P62 (GP62-C) was purchased from Progen.
Following administration of modified oligonucleotide, groups of mice were either allowed free access to chow (control) or fasted overnight (16 hr fast). Mice were sacrificed at 16 hours after administration of the modified oligonucleotide and tissues were collected for analysis.
A group of control mice was administered PBS at time 0 and 1% DMSO at 0, 12, and 22 hours. Mice were sacrificed at 24 hours after administration of the modified oligonucleotide and tissues were collected for analysis. […]

We go through 1 compound from patent US20210130826A1, “METHODS OF MODULATING ANTISENSE ACTIVITY” (IONIS PHARMACEUTICALS, INC., priority 2018, published 2021).

With `COc1ccc(-c2ccc3c(N4CCOC[C@@H]4C)nc(N4CCOC[C@@H]4C)nc3n2)cc1CO` [AZD8055], the “LC3B II/I ratio” value with LC3B was 2.3. This compound had a P62 with p62 of 0.5. The pS6/S6 ratio in assay [1] is listed as 0.2.
